Measurements as given in US20260092043A1, “NOVEL BENZOXAZOLE DERIVATIVE COMPRISING 4-AMINO-BUTANAMIDE AND USE THEREOF” (EWHA UNIVERSITY - INDUSTRY COLLABORATION FOUNDATION, priority 2022, published 2026).
Where two headings read alike, the source gives them in different places.

How the values were obtained:
IL-1β mRNA expression = assay: Inhibition of IL-1β mRNA expression in LPS-treated HaCaT cells (real-time PCR); format: cell-based, Human; settings: 10 μM compound pretreatment then LPS, LPS alone set to 100%
Method: (§1) Human keratinocytes HaCaT or alpha mouse liver 12 (AML-12) cells were obtained from Cell Lines Service GmbH (Eppelheim, Germany). The cells were cultured in Dulbecco's modified Eagle's medium (DMEM, HyClone) supplemented with 10% fetal bovine serum (HyClone) (HaCaT cells) and 1% penicillin/streptomycin (HyClone) and maintained at 37° C. in a humidified atmosphere containing 5% CO2. AML-12 cells were pretreated with compounds at a concentration of 10 μM 1 hour before LPS treatment and then treated with LPS (100 ng/mL) for 24 hours.
(§2) Total RNA was isolated from tissues using TRIzol reagent (Invitrogen), and reverse transcription (RT) and real-time PCR analysis were performed using the ABI PRISM 7700 system (PE Biosystems). Data were normalized to the amount of GAPDH mRNA.
(§3) 13 novel synthetic compounds (Compounds 5a to 5m) and 3 synthetic intermediates (Compounds 4d, 4e, and 41) were screened by measuring the mRNA expression levels of IL-6 and IL-1β. Human keratinocyte HaCaT cell lines were used to evaluate the mRNA expression inhibition effect. […] Each compound was administered at a concentration of 10 μM.

TNF-α mRNA = TNF-α mRNA level in liver tissue of LPS-injected mice; format: in vivo, mice (C57BL/6J); settings: 10 mg/kg in olive oil 1 hour before LPS (1 mg/kg i.p., 6 h)
Method: (§4) 10-week-old male C57BL/6J mice (Jackson Laboratory, Bar Harbor, ME, USA) were used in the experiment. All animal experiments were performed in accordance with the protocol approved by the Institutional Animal Care and Use Committee of Ewha Womans University (EWHA IACUC 19-001). The mice were housed in a temperature-controlled room (20 to 22° C. with a 12 h light:12 h dark cycle). The compounds prepared according to Examples 1 to 10 were diluted with olive oil (vehicle, Sigma) to a volume of 200 μL (10 mg/kg) and administered to mice (male C57BL/6J, […]) 1 hour before LPS administration. LPS (1 mg/kg, 6 h) was resuspended in saline and injected intraperitoneally at a dose of 1 mg/kg of body weight. At the end of the experiment, the mice were sacrificed (tribromoethanol, 250 mg/kg, i.p.) and the liver and blood were collected for further analysis.
as §2
(§5) 2 compounds (Compounds 4d and 5f) were selected for in vivo assay. […] In order to evaluate the anti-inflammatory activity in mice, the mRNA expressions of IL-1β, IL-6, and TNF-α were measured, and the results are shown in FIG. 3.

IL-1β mRNA = IL-1β mRNA level in liver tissue of LPS-injected mice; format: in vivo, mice (C57BL/6J); settings: 10 mg/kg in olive oil 1 hour before LPS (1 mg/kg i.p., 6 h)
Method: as §4, §2, §5

p-IκBα = assay: Western blotting of p-IκBα in LPS-treated AML-12 cells; format: cell-based, mouse; settings: 10 μM compound, FIG. 2
Method: as §1
(§6) Protein levels in cells and mouse tissues were determined by immunoblot analysis. […] After quantifying the protein concentrations in the lysates (supernatant) using the Bradford assay (Bio-Rad, CA, USA), the lysates were mixed with a sample buffer (62.5 mM Tris-HCl pH 6.8, 10% glycerol, 2% sodium dodecyl sulfate, 0.0125% bromophenol blue, 2.5% β-mercaptoethanol) and heated at 95° C. for 5 minutes. […] Immune complexes were detected with horseradish peroxidase (HRP)-conjugated secondary antibodies (Bio-Rad, Hercules, CA, USA) and enhanced with chemiluminescence reagents (Ab Frontier, Daejeon, Korea) using IQ800 (GE Healthcare, Sweden). The abundance of the target protein was quantified by densitometric analysis of the immunoblot. […]

[1] = Plasma ALT and AST levels in LPS-injected mice; format: in vivo, mice (C57BL/6J); settings: for plasma alanine aminotransferase (ALT) level / plasma aspartate transaminase (AST) level: compared to LPS alone; for hepatotoxicity in vivo: judged by ALT and AST levels
Method: as §4
The concentrations of plasma alanine aminotransferase (ALT) and aspartate transaminase (AST) were determined using an EnzyChrom™ assay kit (BioAssay Systems, Hayward, CA, USA) according to the manufacturer's recommendations.
Consistent with the altered histological characteristics, plasma alanine aminotransferase (ALT) and aspartate transaminase (AST) levels increased after LPS administration (FIGS. 4c and 4d), and when Compounds 5f and 4d were administered, ALT and AST levels decreased.

p-NF-κB p65 = assay: Western blotting of p-NF-κB p65 in LPS-treated AML-12 cells; format: cell-based, mouse; settings: 10 μM compound, FIG. 2
Method: as §1, §6

IL-6 mRNA expression = assay: Inhibition of IL-6 mRNA expression in LPS-treated HaCaT cells (real-time PCR); format: cell-based, Human; settings: for mRNA Expression (%) (10 μM) IL-6: HaCaT cells, 10 μM compound pretreatment then LPS, LPS alone set to 100%; for IC50: Homo sapiens, HaCaT
Method: as §1, §2, §3
Dose-response studies were performed for the above five compounds at different concentrations to obtain IC50 values (μM) (FIG. 1 and Table 3).

[2] = test system: LPS-induced liver inflammatory disease model; assay: Liver histology (H&E) and F4/80 immunohistochemistry in LPS-induced liver inflammatory disease model; format: in vivo, mice (C57BL/6J); settings: mice, compared to LPS alone; for F4/80-positive cells in liver: immunohistochemistry
Method: as §4
First, 4% paraformaldehyde-fixed liver tissues were embedded in paraffin according to standard procedures. 4-micron-thick liver tissue sections were prepared, and immunohistochemical staining was performed according to the manufacturer's instructions. 4-micron-thick liver tissue sections were stained with hematoxylin and eosin (H&E) or subjected to immunohistochemical characterization using an antibody specific for F4/80 (Abcam, Cambridge, MA, UK). All steps were performed at room temperature, and the tissues were washed with tap water after each step. The sections were photographed using a Zeiss microscope (Carl Ziess, Thronwood, NY, USA) equipped with AxioCam software.
As a result of LPS administration, macrophage infiltration into the liver tissue was observed. When Compounds 5f and 4d were administered, the inflammatory response was improved compared to when LPS was administered alone.
In order to characterize the phenotype of macrophages accumulated in LPS-induced inflammation, immunohistochemical studies were performed using antibodies against F4/80 as a marker of mature macrophages (FIG. 4b). When LPS was administered alone to induce an inflammatory response, hepatic macrophage accumulation increased. As a result, there was a marked elevation of the number of F4/80-positive cells.

pY-STAT3 = assay: Western blotting of pY-STAT3 in LPS-treated AML-12 cells; format: cell-based, mouse; settings: 10 μM compound, FIG. 2
Method: as §1, §6

IL-6 mRNA = IL-6 mRNA level in liver tissue of LPS-injected mice; format: in vivo, mice (C57BL/6J); settings: 10 mg/kg in olive oil 1 hour before LPS (1 mg/kg i.p., 6 h)
Method: as §4, §2, §5

[3] = dose-response of normalized IL-6 mRNA expression (FIG. 1), read-out: IC50
[4] = log of IC50, dose-response of normalized IL-6 mRNA expression (FIG. 1), read-out: Log (converted)

Cc1ccc2oc(Nc3ccc(NC(=O)CCCNC(=O)OC(C)(C)C)cc3)nc2c1 [Compound 4d, tert-butyl 4-(4-(5-methylbenzo[d]oxazol-2-ylamino)phenylamino)-4-oxobutylcarbamate]
mRNA Expression (%) (10 μM) IL-1β (IL-1β mRNA expression): 0.03% | mRNA level of TNF-α in vivo (TNF-α mRNA): significantly reduced | mRNA level of IL-1β in vivo (IL-1β mRNA): significantly reduced | expression level of p-IκBα (p-IκBα): significantly down-regulated | plasma alanine aminotransferase (ALT) level [1]: decreased | plasma aspartate transaminase (AST) level [1]: decreased | hepatotoxicity in vivo [1]: without hepatotoxicity | expression level of p-NF-κB p65 (p-NF-κB p65): significantly down-regulated | mRNA Expression (%) (10 μM) IL-6 (IL-6 mRNA expression): 2.4% | IC50 (IL-6 mRNA expression; [3]): 0.0604 nM | IC50 (IL-6 mRNA expression; [4]): 0.0603 nM | inflammatory response in liver histology (H&E) [2]: improved | F4/80-positive cells in liver [2]: significant decrease | expression level of pY-STAT3 (pY-STAT3): significantly down-regulated | mRNA level of IL-6 in vivo (IL-6 mRNA): significantly reduced

Cc1cccc2oc(Nc3ccc(NC(=O)CCCN)cc3)nc12 [Compound 5c, 4-amino-N-(4-(4-methylbenzo[d]oxazol-2-ylamino)phenyl)butanamide]
mRNA Expression (%) (10 μM) IL-1β (IL-1β mRNA expression): 0.79% | mRNA Expression (%) (10 μM) IL-6 (IL-6 mRNA expression): 2.08% | IC50 (IL-6 mRNA expression; [3]): 1640 nM | IC50 (IL-6 mRNA expression; [4]): 1660 nM

Cc1ccc2oc(Nc3ccc(NC(=O)CCCN)cc3)nc2c1 [Compound 5d, 4-amino-N-(4-(5-methylbenzo[d]oxazol-2-ylamino)phenyl)butanamide]
mRNA Expression (%) (10 μM) IL-1β (IL-1β mRNA expression): 0.03% | mRNA Expression (%) (10 μM) IL-6 (IL-6 mRNA expression): 3.39% | IC50 (IL-6 mRNA expression; [3]): 32.7 nM | IC50 (IL-6 mRNA expression; [4]): 33.1 nM

CC(C)(C)c1ccc2oc(Nc3ccc(NC(=O)CCCN)cc3)nc2c1 [Compound 5f, 4-amino-N-(4-(5-tert-butylbenzo[d]oxazol-2-ylamino)phenyl)butanamide]
mRNA Expression (%) (10 μM) IL-1β (IL-1β mRNA expression): 2.83% | mRNA level of TNF-α in vivo (TNF-α mRNA): significantly reduced | mRNA level of IL-1β in vivo (IL-1β mRNA): significantly reduced | expression level of p-IκBα (p-IκBα): significantly down-regulated | plasma alanine aminotransferase (ALT) level [1]: decreased | plasma aspartate transaminase (AST) level [1]: decreased | hepatotoxicity in vivo [1]: without hepatotoxicity | expression level of p-NF-κB p65 (p-NF-κB p65): significantly down-regulated | mRNA Expression (%) (10 μM) IL-6 (IL-6 mRNA expression): 3.26% | IC50 (IL-6 mRNA expression; [3]): 0.444 nM | IC50 (IL-6 mRNA expression; [4]): 0.447 nM | inflammatory response in liver histology (H&E) [2]: improved | F4/80-positive cells in liver [2]: significant decrease | expression level of pY-STAT3 (pY-STAT3): significantly down-regulated | mRNA level of IL-6 in vivo (IL-6 mRNA): significantly reduced

COc1cc(NC(=O)CCCN)ccc1Nc1nc2cc(C(C)(C)C)ccc2o1 [Compound 5m, 4-amino-N-(4-(5-tert-butylbenzo[d]oxazol-2-ylamino)-3-methoxyphenyl)butanamide]
mRNA Expression (%) (10 μM) IL-1β (IL-1β mRNA expression): 0.49% | mRNA Expression (%) (10 μM) IL-6 (IL-6 mRNA expression): 4.07% | IC50 (IL-6 mRNA expression; [3]): 0.199 nM | IC50 (IL-6 mRNA expression; [4]): 0.2 nM
